Laboratory results from US7528149B2 (Janssen Pharmaceutica N.V., priority 1999, dated 2009).
Read-outs that look alike come from different tables or passages of the source.

Columns and labels:
Type in all cases: cell-based
[1] = tested on: Respiratory Syncytial Virus; test: In vitro screening for activity against Respiratory Syncytial Virus (tetrazolium-based colorimetric assay, protection against cytopathology in HeLa cells); settings: for SI (selectivity index, CC50 divided by IC50): CC50 (HeLa) / IC50 (RSV); for IC50: read-out: IC50 (antiviral activity)
From the text: (§1) The percent protection against cytopathology caused by viruses (antiviral activity or IC50) achieved by tested compounds and their cytotoxicity (CC50) were both calculated from dose-response curves. The selectivity of the antiviral effect is represented by the selectivity index (SI), calculated by dividing the CC50 (cytotoxic dose for 50% of the cells) by the IC50 (antiviral activity for 50% of the cells).
(§2) Automated tetrazolium-based colorimetric assays were used for determination of IC50 and CC50 of test compounds. Flat-bottom, 96-well plastic microtiter trays were filled with 180 μl of Eagle's Basal Medium, supplemented with 5% FCS (0% for FLU) and mM Hepes buffer. Subsequently, stock solutions (7.8× final test concentration) of compounds were added in 45 μl volumes to a series of triplicate wells so as to allow simultaneous evaluation of their effects on virus- and mock-infected cells. Five five-fold dilutions were made directly in the microtiter trays using a robot system. Untreated virus controls, and HeLa cell controls were included in each test. Approximately 100 TCID50 of Respiratory Syncytial Virus was added to two of the three rows in a volume of 50 μl. The same volume of medium was added to the third row to measure the cytotoxicity of the compounds at the same concentrations as those used to measure the antiviral activity. After two hours of incubation, a suspension (4×10^5 cells/ml) of HeLa cells was added to all wells in a volume of 50 μl. The cultures were incubated at 37° C. in a 5% CO2 atmosphere. Seven days after infection the cytotoxicity and the antiviral activity was examined spectrophotometrically. To each well of the microtiter tray, 25 μl of a solution of MTT (3-(4,5-dimethylthiazol-2-yl)-2,5-diphenyltetrazolium bromide) was added. The trays were further incubated at 37° C. for 2 hours, after which the medium was removed from each cup. Solubilization of the formazan crystals was achieved by adding 100 μl 2-propanol. Complete dissolution of the formazan crystals were obtained after the trays have been placed on a plate shaker for 10 min. Finally, the absorbances were read in an eight-channel computer-controlled photometer (Multiskan MCC, Flow Laboratories) at two wavelengths (540 and 690 nm). The absorbance measured at 690 nm was automatically subtracted from the absorbance at 540 nm, so as to eliminate the effects of non-specific absorption.

[2] = Cytotoxicity in mock-infected HeLa cells (tetrazolium-based colorimetric assay); settings: human
From the text: as §1, §2

[3] = tested on: HeLa cells; test: as above; settings: human, 7 days
From the text: as §1, §2

[4] = CC50 (cytotoxic dose for 50% of the cells)
[5] = human respiratory syncytial virus, HeLa, 168 h
[6] = mock-infected HeLa cells, MTT, seven days, read-out: CC50 (cytotoxic dose for 50% of the cells)

Q: With `CCOC(c1cccc(C)n1)n1c(NC2CCN(CC(N)C(C)C)CC2)nc2ccccc21` [Compound 67, [(A)(S)]-N-[1-(2-amino-3-methylbutyl)-4-piperidinyl]-1-[ethoxy(6-methyl-2-pyridinyl)methyl]-1H-benzimidazol-2-amine monohydrate] as the compound, how does the “SI (selectivity index, CC50 divided by IC50)” value ([1]; monohydrate) read?
A: 15849

Q: What about the IC50 ([1]; RSV approx. 100 TCID50, HeLa cells, MTT read seven days after infection, monohydrate) of the same compound?
A: 4 nM

Q: And the CC50 at 7 days [2, 4]?
A: 63400 nM

Q: For `COCCOC(c1cccc(C)n1)n1c(NC2CCN(CC(N)C(C)C)CC2)nc2c(C)cc(Cl)cc21.Cl.Cl.Cl.O.O.O` (stereo not drawn) [Compound 88, N-[1-(2-amino-3-methylbutyl)-4-piperidinyl]-6-chloro-1-[(2-methoxyethoxy)(6-methyl-2-pyridinyl)methyl]-4-methyl-1H-benzimidazol-2-amine trihydrochloride trihydrate], which “SI (selectivity index, CC50 divided by IC50)” value [1] is on record?
A: 10000

Q: And the IC50 [1, 5]?
A: 2 nM

Q: What about the CC50 at 7 days [2, 6] of the same compound?
A: 20000 nM

Q: Which “SI (selectivity index, CC50 divided by IC50)” value [1] does the source give for `CCOC(c1nc(C)ccc1OCc1ccccc1)n1c(NC2CCN(CCN)CC2)nc2ccccc21.Cl.Cl.Cl.O.O` (racemic) [Compound 11, (±)-N-[1-(2-aminoethyl)-4-piperidinyl]-1-[ethoxy[6-methyl-3-(phenylmethoxy)-2-pyridinyl]-methyl]-1H-benzimidazol-2-amine trihydrochloride dihydrate] here?
A: 79

Q: And the IC50 [1, 5]?
A: 126 nM

Q: What about the CC50 at 7 days [2, 6] of the same compound?
A: 9950 nM

Q: Which “SI (selectivity index, CC50 divided by IC50)” value [1] does the source give for `CCOC(c1cccc(Br)n1)n1c(NC2CCN(CC(N)C(C)C)CC2)nc2c(C)cccc21` (racemic) [Compound 87, monohydrate] here?
A: 31623

Q: And the IC50 [1, 5]?
A: 0.32 nM

Q: And the CC50 at 7 days [2, 6]?
A: 10100 nM

Q: Which results are given for `CCOC(c1cccc(C)n1)n1c(NC2CCN(CC(N)C(C)C)CC2)nc2ccccc21` (stereo not drawn) [Compound 58]?
A: SI (selectivity index, CC50 divided by IC50) [1]: 1585; IC50 ([1]; RSV approx. 100 TCID50, HeLa cells, MTT read seven days after infection): 50.1 nM; CC50 [3]: 79400 nM

Q: Which results are given for `Cc1cccc(C(OCCO)n2c(NC3CCN(CCN)CC3)nc3ccccc32)n1` (racemic) [Compound 13, monohydrate]?
A: SI (selectivity index, CC50 divided by IC50) [1]: >7943; IC50 [1, 5]: 12.6 nM; CC50 at 7 days [2, 6]: > 100000 nM

Q: With `CCOC(c1cccc(Br)n1)n1c(NC2CCN(CC(N)C(C)C)CC2)nc2ccccc21` (racemic) [Compound 10, (±)-N-[1-(2-amino-3-methylbutyl)-4-piperidinyl]-1-[(6-bromo-2-pyridinyl)-ethoxymethyl]-1H-benzimidazol-2-amine] as the compound, how does the “SI (selectivity index, CC50 divided by IC50)” value [1] read?
A: 63096

Q: And the IC50 ([1]; human respiratory syncytial virus, HeLa, 168 h, RSV approx. 100 TCID50, HeLa cells, MTT read seven days after infection)?
A: 0.6 nM

Q: And the CC50 at 7 days [2, 4]?
A: 37900 nM
